In ChEMBL document CHEMBL4270552, “4-(Phenoxy) and 4-(benzyloxy)benzamides as potent and selective inhibitors of mono-ADP-ribosyltransferase PARP10/ARTD10” (Eur J Med Chem, 2018):

Tests used:
[1] = molecular target: Protein mono-ADP-ribosyltransferase PARP4 (Homo sapiens, UniProt Q9UKK3); assay: Inhibition of N-terminal His-tagged human ARTD4 (250 to 565 residues) expressed in Escherichia coli Rosetta2 (DE3) using TCEP as substrate after 2.5 hrs in presence of NAD+
[2] = molecular target: T1, Poly [ADP-ribose] polymerase tankyrase-1 (Homo sapiens, UniProt O95271); assay: Inhibition of N-terminal His-tagged human ARTD5 (1030 to 1317 residues) expressed in Escherichia coli Rosetta2 (DE3) using TCEP as substrate after 18 hrs in presence of NAD+
T1 sequence (O95271 whole entry): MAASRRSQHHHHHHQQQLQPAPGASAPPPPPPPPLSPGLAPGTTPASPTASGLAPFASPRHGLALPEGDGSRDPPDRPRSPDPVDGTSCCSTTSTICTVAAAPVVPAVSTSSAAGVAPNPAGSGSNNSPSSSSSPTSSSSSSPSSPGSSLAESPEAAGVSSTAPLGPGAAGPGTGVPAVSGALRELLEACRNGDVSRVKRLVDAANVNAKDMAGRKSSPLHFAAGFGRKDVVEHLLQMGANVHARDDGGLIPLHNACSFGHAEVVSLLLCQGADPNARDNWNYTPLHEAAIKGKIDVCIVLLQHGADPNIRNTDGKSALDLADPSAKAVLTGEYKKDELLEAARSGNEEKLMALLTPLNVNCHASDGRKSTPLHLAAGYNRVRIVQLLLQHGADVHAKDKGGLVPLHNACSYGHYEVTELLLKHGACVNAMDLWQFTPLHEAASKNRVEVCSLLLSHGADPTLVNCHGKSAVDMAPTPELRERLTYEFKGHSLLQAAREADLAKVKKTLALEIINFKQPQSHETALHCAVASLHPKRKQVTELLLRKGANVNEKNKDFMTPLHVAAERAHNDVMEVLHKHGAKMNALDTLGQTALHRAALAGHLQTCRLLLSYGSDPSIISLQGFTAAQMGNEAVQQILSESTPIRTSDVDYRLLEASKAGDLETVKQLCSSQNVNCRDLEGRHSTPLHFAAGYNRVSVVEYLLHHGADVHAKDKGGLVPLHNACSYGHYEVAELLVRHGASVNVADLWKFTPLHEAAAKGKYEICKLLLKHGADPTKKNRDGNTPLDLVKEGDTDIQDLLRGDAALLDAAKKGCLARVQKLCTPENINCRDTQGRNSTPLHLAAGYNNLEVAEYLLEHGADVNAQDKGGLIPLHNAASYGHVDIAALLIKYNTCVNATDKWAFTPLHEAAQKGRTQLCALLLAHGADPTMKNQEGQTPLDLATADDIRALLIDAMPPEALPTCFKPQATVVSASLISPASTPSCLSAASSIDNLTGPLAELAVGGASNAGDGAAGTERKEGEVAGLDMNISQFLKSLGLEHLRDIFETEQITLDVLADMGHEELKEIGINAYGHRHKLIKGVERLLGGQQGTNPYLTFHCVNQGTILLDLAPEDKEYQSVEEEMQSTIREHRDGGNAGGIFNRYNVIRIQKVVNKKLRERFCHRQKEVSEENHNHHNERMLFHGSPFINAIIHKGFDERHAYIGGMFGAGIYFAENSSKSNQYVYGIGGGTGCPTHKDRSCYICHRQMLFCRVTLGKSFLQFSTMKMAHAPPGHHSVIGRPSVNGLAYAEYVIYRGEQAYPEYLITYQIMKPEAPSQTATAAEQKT

[3] = molecular target: T2, Protein mono-ADP-ribosyltransferase PARP16 (Homo sapiens, UniProt Q8N5Y8); assay: Inhibition of N-terminal His-tagged human ARTD15 (1 to 280 residues) expressed in Escherichia coli Rosetta2 (DE3) after 24 hrs in presence of NAD+
T2 sequence (Q8N5Y8 whole entry): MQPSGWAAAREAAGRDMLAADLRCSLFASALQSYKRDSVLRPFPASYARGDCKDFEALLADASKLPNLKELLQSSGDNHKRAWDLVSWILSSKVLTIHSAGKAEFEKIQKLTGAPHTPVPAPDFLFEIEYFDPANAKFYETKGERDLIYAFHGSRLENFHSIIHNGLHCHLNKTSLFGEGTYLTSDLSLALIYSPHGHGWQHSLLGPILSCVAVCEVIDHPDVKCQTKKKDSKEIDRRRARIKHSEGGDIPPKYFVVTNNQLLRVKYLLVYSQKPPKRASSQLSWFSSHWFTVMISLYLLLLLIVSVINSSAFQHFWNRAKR

[4] = molecular target: T3, Protein mono-ADP-ribosyltransferase PARP10 (Homo sapiens) (UniProt Q53GL7)
T3 sequence (whole entry): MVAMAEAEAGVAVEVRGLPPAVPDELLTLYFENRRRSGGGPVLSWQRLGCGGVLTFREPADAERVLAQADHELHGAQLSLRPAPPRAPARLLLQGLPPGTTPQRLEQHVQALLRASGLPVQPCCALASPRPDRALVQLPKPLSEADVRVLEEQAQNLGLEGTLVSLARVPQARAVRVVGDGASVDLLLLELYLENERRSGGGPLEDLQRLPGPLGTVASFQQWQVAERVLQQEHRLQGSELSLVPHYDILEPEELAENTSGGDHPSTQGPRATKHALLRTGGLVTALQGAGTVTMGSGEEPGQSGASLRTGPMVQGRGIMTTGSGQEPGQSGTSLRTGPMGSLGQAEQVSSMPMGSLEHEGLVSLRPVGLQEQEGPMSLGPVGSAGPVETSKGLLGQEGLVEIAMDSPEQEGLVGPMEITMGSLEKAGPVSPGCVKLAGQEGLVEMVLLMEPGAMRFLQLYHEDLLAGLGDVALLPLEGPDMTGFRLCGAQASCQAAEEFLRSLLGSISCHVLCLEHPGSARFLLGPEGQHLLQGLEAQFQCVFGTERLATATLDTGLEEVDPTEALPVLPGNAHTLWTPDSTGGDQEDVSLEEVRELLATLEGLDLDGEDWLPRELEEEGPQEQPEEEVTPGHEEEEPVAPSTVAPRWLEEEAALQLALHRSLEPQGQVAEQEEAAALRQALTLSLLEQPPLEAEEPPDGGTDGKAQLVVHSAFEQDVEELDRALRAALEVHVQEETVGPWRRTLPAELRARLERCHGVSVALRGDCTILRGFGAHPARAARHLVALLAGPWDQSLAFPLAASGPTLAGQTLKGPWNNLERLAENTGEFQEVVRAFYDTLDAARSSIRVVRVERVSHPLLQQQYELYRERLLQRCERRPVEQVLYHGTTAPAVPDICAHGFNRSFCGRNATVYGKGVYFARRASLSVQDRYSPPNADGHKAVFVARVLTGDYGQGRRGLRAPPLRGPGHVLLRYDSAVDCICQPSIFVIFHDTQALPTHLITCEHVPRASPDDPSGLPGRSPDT
Description: Stabilization of C-terminal His-tagged human ARTD10 (809 to 1017 residues) expressed in Escherichia coli Rosetta2 (DE3) assessed as change in melting temperature at 100 uM by SYPRO Orange-dye based differential scanning fluorimetric method

[5] = molecular target: Protein mono-ADP-ribosyltransferase PARP9 (Homo sapiens) (UniProt Q8IXQ6)
Description: Stabilization of human ARTD9 expressed in Escherichia coli assessed as change in melting temperature at 100 uM by SYPRO Orange-dye based differential scanning fluorimetric method

Sequence of Protein mono-ADP-ribosyltransferase PARP4 (Q9UKK3 whole entry, the tested form may be a part): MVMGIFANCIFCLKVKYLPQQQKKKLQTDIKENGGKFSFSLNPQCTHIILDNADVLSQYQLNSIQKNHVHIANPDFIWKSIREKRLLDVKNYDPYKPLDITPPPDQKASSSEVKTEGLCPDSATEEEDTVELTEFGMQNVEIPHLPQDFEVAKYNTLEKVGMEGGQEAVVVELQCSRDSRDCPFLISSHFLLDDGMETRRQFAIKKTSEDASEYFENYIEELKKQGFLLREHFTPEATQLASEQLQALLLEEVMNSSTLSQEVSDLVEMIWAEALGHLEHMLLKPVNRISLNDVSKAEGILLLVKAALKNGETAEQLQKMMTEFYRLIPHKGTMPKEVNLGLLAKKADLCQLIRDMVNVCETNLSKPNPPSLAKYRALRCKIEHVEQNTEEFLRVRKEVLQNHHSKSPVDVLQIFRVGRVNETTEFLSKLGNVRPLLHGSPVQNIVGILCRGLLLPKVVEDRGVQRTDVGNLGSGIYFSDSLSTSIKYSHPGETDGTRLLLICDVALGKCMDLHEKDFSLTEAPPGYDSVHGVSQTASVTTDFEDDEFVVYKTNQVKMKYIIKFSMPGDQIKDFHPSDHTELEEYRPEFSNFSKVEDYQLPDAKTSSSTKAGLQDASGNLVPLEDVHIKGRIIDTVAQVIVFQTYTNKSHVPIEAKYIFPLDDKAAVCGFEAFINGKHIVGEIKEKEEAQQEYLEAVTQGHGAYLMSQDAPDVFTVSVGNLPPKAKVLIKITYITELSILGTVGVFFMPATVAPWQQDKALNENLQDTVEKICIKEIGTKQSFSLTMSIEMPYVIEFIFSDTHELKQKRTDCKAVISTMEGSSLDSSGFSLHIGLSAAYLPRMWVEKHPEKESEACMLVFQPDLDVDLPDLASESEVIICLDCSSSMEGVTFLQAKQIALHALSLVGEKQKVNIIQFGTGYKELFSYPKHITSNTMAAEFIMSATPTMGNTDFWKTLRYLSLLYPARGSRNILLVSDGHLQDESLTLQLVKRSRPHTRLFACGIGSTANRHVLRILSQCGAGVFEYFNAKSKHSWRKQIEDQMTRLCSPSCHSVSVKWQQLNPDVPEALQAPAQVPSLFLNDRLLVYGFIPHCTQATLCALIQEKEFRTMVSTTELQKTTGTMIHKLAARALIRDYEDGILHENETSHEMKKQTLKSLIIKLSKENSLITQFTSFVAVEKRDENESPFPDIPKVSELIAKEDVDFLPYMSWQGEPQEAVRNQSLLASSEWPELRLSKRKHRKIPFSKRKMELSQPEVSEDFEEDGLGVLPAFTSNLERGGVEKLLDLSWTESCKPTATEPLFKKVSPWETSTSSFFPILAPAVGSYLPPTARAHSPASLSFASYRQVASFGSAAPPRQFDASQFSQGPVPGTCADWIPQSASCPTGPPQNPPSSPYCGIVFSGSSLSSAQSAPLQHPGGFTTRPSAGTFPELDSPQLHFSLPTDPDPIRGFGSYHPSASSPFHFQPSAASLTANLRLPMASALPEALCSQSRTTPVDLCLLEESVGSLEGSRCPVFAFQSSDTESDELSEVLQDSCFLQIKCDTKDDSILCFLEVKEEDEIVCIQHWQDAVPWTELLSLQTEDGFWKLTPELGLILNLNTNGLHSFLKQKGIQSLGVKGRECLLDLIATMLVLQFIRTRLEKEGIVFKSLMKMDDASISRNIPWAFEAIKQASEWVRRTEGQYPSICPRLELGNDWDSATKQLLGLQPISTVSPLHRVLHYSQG

NC(=O)c1ccc(OCc2ccccc2F)cc1
IC50 [1]: > 100 µM
IC50 [2]: > 100 µM
IC50 [3]: > 10 µM
ΔTm [4]: 4.2 °C
ΔTm [5]: 0.76 °C

NC(=O)c1ccc(Oc2ccc(C=O)cc2)cc1
IC50 [1]: > 100 µM
IC50 [2]: > 100 µM
IC50 [3]: > 10 µM
ΔTm [4]: 3.6 °C
ΔTm [5]: 0.04 °C

COc1ccc(C(N)=O)cc1
IC50 [1]: 65 µM
IC50 [2]: > 100 µM
IC50 [3]: > 10 µM
ΔTm [4]: 2.76 °C
ΔTm [5]: 0.15 °C

NC(=O)c1ccc(Oc2ccc(C(=O)O)cc2)cc1
IC50 [1]: > 100 µM
IC50 [2]: > 100 µM
IC50 [3]: > 10 µM
ΔTm [4]: 5.21 °C
ΔTm [5]: 1.2 °C
